In US20240270762A1, “PENICILLIN-BINDING PROTEIN INHIBITORS” (priority 2021, published 2024):
Converted amounts (≈) assume the structure as drawn.

System: B. pseudomallei Bp82
Experiment: microbe, parasite or virus in culture
Format: cell-based
Conditions: Burkholderia pseudomallei, BP82, read-out: Minimum inhibitory concentration, B. pseudomallei Bp82

Structure (SMILES)	MIC
O=C(O)c1c(F)ccc2c1OB(O)[C@@H](NC(=O)[C@H](NC(=O)N1CCN(CCNC(=O)[C@@H]3CCCN3)C(=O)C1=O)c1cc(F)c(O)c(O)c1Cl)C2 [Example 229, (R)-3-((R)-2-(2-chloro-5-fluoro-3,4-dihydroxyphenyl)-2-(2,3-dioxo-4-(2-((S)-pyrrolidine-2-carboxamido)ethyl)piperazine-1-carboxamido)acetamido)-7-fluoro-2-hydroxy-3,4-dihydro-2H-benzo[e][1,2]oxaborinine-8-carboxylic acid]	< 1 µg/mL
O=C(NCCS(=O)(=O)N1CCN(C(=O)NC(C(=O)N[C@H]2Cc3ccc(F)c(C(=O)O)c3OB2O)c2cc(F)c(O)c(O)c2Cl)C1=O)c1cccnc1 (stereo partly drawn) [Example 262, (3R)-3-(2-(2-chloro-5-fluoro-3,4-dihydroxyphenyl)-2-(3-((2-(nicotinamido)ethyl)sulfonyl)-2-oxoimidazolidine-1-carboxamido)acetamido)-7-fluoro-2-hydroxy-3,4-dihydro-2H-benzo[e][1,2]oxaborinine-8-carboxylic acid]	< 1 µg/mL
O=C(NCCN1CCN(C(=O)NC(C(=O)N[C@H]2Cc3ccc(F)c(C(=O)O)c3OB2O)c2cc(F)c(O)c(O)c2Cl)C1=O)Nc1cccnc1 (stereo partly drawn) [Example 251, (3R)-3-(2-(2-chloro-5-fluoro-3,4-dihydroxyphenyl)-2-(2-oxo-3-(2-(3-(pyridin-3-yl)ureido)ethyl)imidazolidine-1-carboxamido)acetamido)-7-fluoro-2-hydroxy-3,4-dihydro-2H-benzo[e][1,2]oxaborinine-8-carboxylic acid]	< 1 µg/mL
O=C(NCCN1CCN(C(=O)NC(C(=O)N[C@H]2Cc3ccc(F)c(C(=O)O)c3OB2O)c2cc(F)c(O)c(O)c2Cl)C(=O)C1=O)c1cccnc1 (stereo partly drawn) [Example 217, (3R)-3-(2-(2-chloro-5-fluoro-3,4-dihydroxyphenyl)-2-(4-(2-(nicotinamido)ethyl)-2,3-dioxopiperazine-1-carboxamido)acetamido)-7-fluoro-2-hydroxy-3,4-dihydro-2H-benzo[e][1,2]oxaborinine-8-carboxylic acid]	8 to 16 µg/mL (≈ 10.9 to 21.9 µM)
O=C(O)c1c(F)ccc2c1OB(O)[C@@H](NC(=O)C(NC(=O)N1CCN(S(=O)(=O)CCNC(=O)[C@@H]3CCCN3)C1=O)c1cc(F)c(O)c(O)c1Cl)C2 (stereo partly drawn) [Example 265, (3R)-3-(2-(2-chloro-5-fluoro-3,4-dihydroxyphenyl)-2-(2-oxo-3-((2-((S)-pyrrolidine-2-carboxamido)ethyl)sulfonyl)imidazolidine-1-carboxamido)acetamido)-7-fluoro-2-hydroxy-3,4-dihydro-2H-benzo[e][1,2]oxaborinine-8-carboxylic acid]	< 1 µg/mL
O=C(NCCCN1CCN(C(=O)NC(C(=O)N[C@H]2Cc3ccc(F)c(C(=O)O)c3OB2O)c2cc(F)c(O)c(O)c2Cl)C(=O)C1=O)c1nccs1 (stereo partly drawn) [Example 211, (3R)-3-(2-(2-chloro-5-fluoro-3,4-dihydroxyphenyl)-2-(2,3-dioxo-4-(3-(thiazole-2-carboxamido)propyl)piperazine-1-carboxamido)acetamido)-7-fluoro-2-hydroxy-3,4-dihydro-2H-benzo[e][1,2]oxaborinine-8-carboxylic acid]	< 1 µg/mL
O=C(NCCS(=O)(=O)N1CCN(C(=O)N[C@@H](C(=O)N[C@H]2Cc3ccc(F)c(C(=O)O)c3OB2O)c2cc(F)c(O)c(O)c2Cl)C1=O)c1nccs1 [Example 264, (R)-3-((R)-2-(2-chloro-5-fluoro-3,4-dihydroxyphenyl)-2-(2-oxo-3-((2-(thiazole-2-carboxamido)ethyl)sulfonyl)imidazolidine-1-carboxamido)acetamido)-7-fluoro-2-hydroxy-3,4-dihydro-2H-benzo[e][1,2]oxaborinine-8-carboxylic acid]	< 1 µg/mL
O=C(NCCCN1CCN(C(=O)NC(C(=O)N[C@H]2Cc3ccc(F)c(C(=O)O)c3OB2O)c2cc(F)c(O)c(O)c2Cl)C(=O)C1=O)Nc1cccnc1 (stereo partly drawn) [Example 213, (3R)-3-(2-(2-chloro-5-fluoro-3,4-dihydroxyphenyl)-2-(2,3-dioxo-4-(3-(3-(pyridin-3-yl)ureido)propyl)piperazine-1-carboxamido)acetamido)-7-fluoro-2-hydroxy-3,4-dihydro-2H-benzo[e][1,2]oxaborinine-8-carboxylic acid]	< 1 µg/mL
O=C(NCCN1CCN(C(=O)NC(C(=O)N[C@H]2Cc3ccc(F)c(C(=O)O)c3OB2O)c2cc(F)c(O)c(O)c2Cl)C1=O)Nc1ccncc1 (stereo partly drawn) [Example 250, (3R)-3-(2-(2-chloro-5-fluoro-3,4-dihydroxyphenyl)-2-(2-oxo-3-(2-(3-(pyridin-4-yl)ureido)ethyl)imidazolidine-1-carboxamido)acetamido)-7-fluoro-2-hydroxy-3,4-dihydro-2H-benzo[e][1,2]oxaborinine-8-carboxylic acid]	< 1 µg/mL
O=C(NCCN1CCN(C(=O)NC(C(=O)N[C@H]2Cc3ccc(F)c(C(=O)O)c3OB2O)c2cc(F)c(O)c(O)c2Cl)C1=O)c1ccncc1 (stereo partly drawn) [Example 245, (3R)-3-(2-(2-chloro-5-fluoro-3,4-dihydroxyphenyl)-2-(3-(2-(isonicotinamido)ethyl)-2-oxoimidazolidine-1-carboxamido)acetamido)-7-fluoro-2-hydroxy-3,4-dihydro-2H-benzo[e][1,2]oxaborinine-8-carboxylic acid]	< 1 µg/mL
CN(CCN1CCN(C(=O)N[C@@H](C(=O)N[C@H]2Cc3ccc(F)c(C(=O)O)c3OB2O)c2cc(F)c(O)c(O)c2Cl)C(=O)C1=O)Cc1cncc(O)c1 [Example 208, (R)-3-((R)-2-(2-chloro-5-fluoro-3,4-dihydroxyphenyl)-2-(4-(2-(((5-hydroxypyridin-3-yl)methyl)(methyl)amino)ethyl)-2,3-dioxopiperazine-1-carboxamido)acetamido)-7-fluoro-2-hydroxy-3,4-dihydro-2H-benzo[e][1,2]oxaborinine-8-carboxylic acid]	< 1 µg/mL
O=C(O)c1c(F)ccc2c1OB(O)[C@@H](NC(=O)C(NC(=O)N1CCN(S(=O)(=O)CCCNC(=O)[C@@H]3CCCN3)C1=O)c1cc(F)c(O)c(O)c1Cl)C2 (stereo partly drawn) [Example 275, (3R)-3-(2-(2-chloro-5-fluoro-3,4-dihydroxyphenyl)-2-(2-oxo-3-((3-((S)-pyrrolidine-2-carboxamido)propyl)sulfonyl)imidazolidine-1-carboxamido)acetamido)-7-fluoro-2-hydroxy-3,4-dihydro-2H-benzo[e][1,2]oxaborinine-8-carboxylic acid]	< 1 µg/mL
